Experimental data taken from ChEMBL document CHEMBL2163293, “Rational approaches to improving selectivity in drug design” (J Med Chem, 2012).

Biological target: Protease (Human immunodeficiency virus 1, UniProt Q9YQ12)
Assay: Inhibition of HIV1 protease

Protease, sequence (Q9YQ12 whole entry): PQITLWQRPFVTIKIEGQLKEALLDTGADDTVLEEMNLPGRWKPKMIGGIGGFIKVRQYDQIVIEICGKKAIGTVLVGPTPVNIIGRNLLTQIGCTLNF

Ki: 0.02 nM
Compound: CC(=O)N[C@H](C(=O)N[C@H](C(=O)N[C@@H](CC(C)C)[C@@H](O)CC(=O)N[C@@H](C)C(=O)N[C@@H](CC(C)C)[C@@H](O)CC(=O)O)C(C)C)C(C)C [ACETYLPEPSTATIN]
